Laboratory results as given in patent US10493077B2, “Fused imidazo-piperidine JAK inhibitor compound” (THERAVANCE BIOPHARMA R&D IP, LLC, priority 2017, dated 2019).

How the values were obtained:
[1] = biological target: T1, JAK2 (Homo sapiens, UniProt O60674); assay: LanthaScreen JAK biochemical assay, JAK2; conditions: read-out: JAK 2 pKi (converted)
T1 construct: GST; purchased Life Technologies
Procedure: (§1) A panel of four LanthaScreen JAK biochemical assays (JAK1, 2, 3 and Tyk2) were carried in a common kinase reaction buffer (50 mM HEPES, pH 7.5, 0.01% Brij-35, 10 mM MgCl2, and 1 mM EGTA). Recombinant GST-tagged JAK enzymes and a GFP-tagged STAT1 peptide substrate were obtained from Life Technologies.
(§2) Serially diluted compound was pre-incubated with each of the four JAK enzymes and the substrate in white 384-well microplates (Corning) at ambient temperature for 1 h. ATP was subsequently added to initiate the kinase reactions in 10 μL total volume, with 1% DMSO. […] The plates were allowed to incubate at ambient temperature for 1 h before being read on the EnVision reader (Perkin Elmer). Emission ratio signals (520 nm/495 nm) were recorded and utilized to calculate the percent inhibition values based on DMSO and background controls.
(§3) For dose-response analysis, percent inhibition data were plotted vs. compound concentrations, and IC50 values were determined from a 4-parameter robust fit model with the Prism software (GraphPad Software). Results were expressed as pIC50 (negative logarithm of IC50) and subsequently converted to pKi (negative logarithm of dissociation constant, Ki) using the Cheng-Prusoff equation.

[2] = biological target: T2, JAK3 (Homo sapiens, UniProt P52333); assay: LanthaScreen JAK biochemical assay, JAK3; conditions: read-out: JAK 3 pKi (converted)
T2 construct: GST; purchased Life Technologies
T2 sequence (P52333 whole entry): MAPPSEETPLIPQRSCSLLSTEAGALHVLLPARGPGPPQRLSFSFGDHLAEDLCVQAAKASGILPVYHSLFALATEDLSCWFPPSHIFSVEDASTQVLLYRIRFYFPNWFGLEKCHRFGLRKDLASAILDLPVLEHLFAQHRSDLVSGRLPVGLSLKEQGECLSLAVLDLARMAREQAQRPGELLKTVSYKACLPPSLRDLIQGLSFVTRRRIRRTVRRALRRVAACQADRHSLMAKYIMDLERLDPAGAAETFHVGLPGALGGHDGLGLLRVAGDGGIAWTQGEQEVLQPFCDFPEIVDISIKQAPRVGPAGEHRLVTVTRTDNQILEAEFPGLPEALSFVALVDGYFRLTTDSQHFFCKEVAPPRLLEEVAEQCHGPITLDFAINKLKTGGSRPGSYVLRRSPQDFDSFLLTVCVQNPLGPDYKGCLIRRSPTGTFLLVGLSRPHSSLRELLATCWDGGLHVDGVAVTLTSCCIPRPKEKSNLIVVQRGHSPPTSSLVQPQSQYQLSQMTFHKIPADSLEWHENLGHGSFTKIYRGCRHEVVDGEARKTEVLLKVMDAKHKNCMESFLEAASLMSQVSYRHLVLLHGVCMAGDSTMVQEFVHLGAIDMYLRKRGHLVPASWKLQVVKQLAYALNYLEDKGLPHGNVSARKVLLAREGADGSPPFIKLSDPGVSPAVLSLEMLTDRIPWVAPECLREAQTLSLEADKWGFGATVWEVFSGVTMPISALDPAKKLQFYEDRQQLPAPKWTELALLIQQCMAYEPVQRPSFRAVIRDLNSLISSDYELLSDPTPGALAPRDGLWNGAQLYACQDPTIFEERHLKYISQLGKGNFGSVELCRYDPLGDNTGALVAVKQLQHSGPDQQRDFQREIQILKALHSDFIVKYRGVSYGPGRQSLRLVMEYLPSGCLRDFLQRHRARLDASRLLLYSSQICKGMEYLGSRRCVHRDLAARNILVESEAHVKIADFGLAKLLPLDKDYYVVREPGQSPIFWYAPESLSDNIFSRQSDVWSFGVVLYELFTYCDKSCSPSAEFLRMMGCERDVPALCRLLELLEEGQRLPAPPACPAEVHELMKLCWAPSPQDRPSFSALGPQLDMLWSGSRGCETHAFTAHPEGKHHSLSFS
Procedure: as §1, §2, §3

[3] = biological target: T3, Tyk2 (Homo sapiens, UniProt P29597); assay: LanthaScreen JAK biochemical assay, Tyk2; conditions: read-out: Tyk2 pKi (converted)
T3 construct: GST; purchased Life Technologies
T3 sequence (P29597 whole entry): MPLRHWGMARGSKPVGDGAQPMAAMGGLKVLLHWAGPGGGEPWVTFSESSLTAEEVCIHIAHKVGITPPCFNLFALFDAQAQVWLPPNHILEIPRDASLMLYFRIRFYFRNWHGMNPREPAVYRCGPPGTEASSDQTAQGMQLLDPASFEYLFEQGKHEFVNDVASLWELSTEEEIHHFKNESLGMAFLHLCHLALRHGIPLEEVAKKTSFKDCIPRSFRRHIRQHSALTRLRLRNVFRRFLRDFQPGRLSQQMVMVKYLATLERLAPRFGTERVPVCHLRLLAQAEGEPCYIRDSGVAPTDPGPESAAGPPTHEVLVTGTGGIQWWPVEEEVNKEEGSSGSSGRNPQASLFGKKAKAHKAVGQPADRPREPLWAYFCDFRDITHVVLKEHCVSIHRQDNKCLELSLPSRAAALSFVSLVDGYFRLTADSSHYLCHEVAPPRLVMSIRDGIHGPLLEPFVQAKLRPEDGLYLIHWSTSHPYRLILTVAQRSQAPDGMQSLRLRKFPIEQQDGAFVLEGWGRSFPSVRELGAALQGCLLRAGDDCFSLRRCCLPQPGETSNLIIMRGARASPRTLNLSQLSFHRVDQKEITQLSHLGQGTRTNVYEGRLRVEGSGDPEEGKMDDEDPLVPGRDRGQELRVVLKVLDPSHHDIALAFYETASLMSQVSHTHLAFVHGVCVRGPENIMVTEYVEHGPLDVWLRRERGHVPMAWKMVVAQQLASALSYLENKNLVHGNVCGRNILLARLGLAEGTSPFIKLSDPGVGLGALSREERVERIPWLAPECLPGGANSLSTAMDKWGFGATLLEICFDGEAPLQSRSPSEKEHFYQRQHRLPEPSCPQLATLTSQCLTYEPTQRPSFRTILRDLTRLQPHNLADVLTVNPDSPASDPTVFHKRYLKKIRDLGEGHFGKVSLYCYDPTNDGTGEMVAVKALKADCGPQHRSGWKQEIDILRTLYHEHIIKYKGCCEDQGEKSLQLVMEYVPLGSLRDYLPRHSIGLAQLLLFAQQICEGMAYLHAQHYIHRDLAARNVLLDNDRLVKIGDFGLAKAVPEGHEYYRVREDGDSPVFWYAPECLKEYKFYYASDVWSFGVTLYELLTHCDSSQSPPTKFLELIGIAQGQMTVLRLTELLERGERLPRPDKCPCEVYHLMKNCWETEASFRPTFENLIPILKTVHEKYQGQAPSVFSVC
Procedure: as §1, §2, §3

[4] = tested on: IL-2/anti-CD3 stimulated IFNγ in human PBMCs; assay: Cellular JAK potency assay: inhibition of IL-2/anti-CD3 stimulated IFNγ in human PBMCs; assay type: cell-based; conditions: PBMC, 24 h stimulation, read-out: pIC50, inhibition of IL-2/anti-CD3 stimulated IFNγ (converted)
Procedure: The potency of the test compound for inhibition of interleukin-2 (IL-2)/anti-CD3 stimulated interferon gamma (IFNγ) was measured in human peripheral blood mononuclear cells (PBMCs) isolated from human whole blood (Stanford Blood Center). Because IL-2 signals through JAK, this assay provides a measure of JAK cellular potency.
(1) Human peripheral blood mononuclear cells (PBMC) were isolated from human whole blood of healthy donors using a ficoll gradient. Cells were cultured in a 37° C., 5% CO2 humidified incubator in RPMI (Life Technologies) supplemented with 10% Heat Inactivated Fetal Bovine Serum (FBS, Life Technologies), 2 mM Glutamax (Life Technologies), 25 mM HEPES (Life Technologies) and 1× Pen/Strep (Life Technologies). Cells were seeded at 200,000 cells/well in media (50 μL) and cultured for 1 h. The compound was serially diluted in DMSO and then diluted another 500-fold (to a 2× final assay concentration) in media. […]
(2) After cytokine stimulation, cells were centrifuged at 500 g for 5 min and supernatants removed and frozen at −80° C. To determine the inhibitory potency of test compounds in response to IL-2/anti-CD3, supernatant IFNγ concentrations were measured via ELISA (R&D Systems). IC50 values were determined from analysis of the inhibition curves of concentration of IFNγ vs compound concentration. Data are expressed as pIC50 (negative decadic logarithm IC50) values.

[5] = Dermal pharmacokinetics in mini-pig skin; assay type: in vivo; conditions: model cream and ointment formulations, without detectable plasma exposure
Source text: The objective of this assay was to determine the epidermal, dermal and plasma pharmacokinetics of a test compound following a 24 hr exposure to intact mouse or mini-pig skin.
Twenty-four hours prior to dosing the hair was shaved from the back of 25 g male Balb/c mice exposing an area at of least 6 cm^2 (about 10% of body surface) and, in a separate experiment, of 10 kg Gottingen mini-pigs exposing an area of at least 450 cm^2 (about 10% of body surface). At time zero, following isoflurane anesthesia, the test compound was applied to the back of mice or mini-pigs at a dose of 25 μL/cm^2. The skin was covered with an adhesive cover to prevent loss of compound to the cage or bedding.
Following 24 h exposure, the backs were gently washed with soap and water to remove non-absorbed drug and patted dry. Immediately following this washing, blood was drawn by cardiac puncture from the mice and via venipuncture from the mini-pigs. The outer skin (stratum corneum) was then removed by adhesive tape stripping. Upon exposure of the epidermis a 0.5 cm punch biopsy was taken. The epidermis and dermis were quickly separated, weighed and snap frozen. […]
Epidermis and dermis samples were homogenized in 1:10 (w/v) water using a Covaris ultrasonic homogenizer. Samples were extracted in 3 volumes of acetonitrile and quantified against a standard curve via LC-MS analysis.

[6] = biological target: T4, CDK2 (Homo sapiens, UniProt P24941); assay: Kinome screen, CDK2; assay type: binding; conditions: screened at 1 μM
T4 construct: made in house; host or cells: T7 phage in E. coli (BL21-derived) or HEK-293
Procedure: (§4) Kinase-tagged T7 phage strains were grown in parallel in 24-well blocks in an E. coli host derived from the BL21 strain. E. coli were grown to log-phase and infected with T7 phage from a frozen stock (multiplicity of infection=0.4) and incubated with shaking at 32° C. until lysis (90-150 minutes). The lysates were centrifuged (6,000×g) and filtered (0.2 μm) to remove cell debris. The remaining kinases were produced in HEK-293 cells and subsequently tagged with DNA for qPCR detection.
(§5) Streptavidin-coated magnetic beads were treated with biotinylated small molecule ligands for 30 minutes at room temperature to generate affinity resins for kinase assays. The liganded beads were blocked with excess biotin and washed with blocking buffer (SeaBlock (Pierce), 1% BSA, 0.05% Tween 20, 1 mM DTT) to remove unbound ligand and to reduce non-specific phage binding. […] Test compounds were prepared as 40× stocks in 100% DMSO and directly diluted into the assay. All reactions were performed in polypropylene 384-well plates in a final volume of 0.04 ml. […] The beads were then re-suspended in elution buffer (1×PBS, 0.05% Tween 20, 0.5 μM non-biotinylated affinity ligand) and incubated at room temperature with shaking for 30 minutes. The kinase concentration in the eluates was measured by qPCR.

[7] = biological target: T5, PKAC-ALPHA (Homo sapiens, UniProt P17612); assay: Kinome screen, PKAC-ALPHA; assay type: binding; conditions: screened at 1 μM
T5 construct: made in house; host or cells: T7 phage in E. coli (BL21-derived) or HEK-293
Procedure: as §4, §5

[8] = biological target: T6, SLK (Homo sapiens, UniProt Q9H2G2); assay: Kinome screen, SLK; assay type: binding; conditions: screened at 1 μM
T6 construct: made in house; host or cells: T7 phage in E. coli (BL21-derived) or HEK-293
T6 sequence (Q9H2G2 whole entry): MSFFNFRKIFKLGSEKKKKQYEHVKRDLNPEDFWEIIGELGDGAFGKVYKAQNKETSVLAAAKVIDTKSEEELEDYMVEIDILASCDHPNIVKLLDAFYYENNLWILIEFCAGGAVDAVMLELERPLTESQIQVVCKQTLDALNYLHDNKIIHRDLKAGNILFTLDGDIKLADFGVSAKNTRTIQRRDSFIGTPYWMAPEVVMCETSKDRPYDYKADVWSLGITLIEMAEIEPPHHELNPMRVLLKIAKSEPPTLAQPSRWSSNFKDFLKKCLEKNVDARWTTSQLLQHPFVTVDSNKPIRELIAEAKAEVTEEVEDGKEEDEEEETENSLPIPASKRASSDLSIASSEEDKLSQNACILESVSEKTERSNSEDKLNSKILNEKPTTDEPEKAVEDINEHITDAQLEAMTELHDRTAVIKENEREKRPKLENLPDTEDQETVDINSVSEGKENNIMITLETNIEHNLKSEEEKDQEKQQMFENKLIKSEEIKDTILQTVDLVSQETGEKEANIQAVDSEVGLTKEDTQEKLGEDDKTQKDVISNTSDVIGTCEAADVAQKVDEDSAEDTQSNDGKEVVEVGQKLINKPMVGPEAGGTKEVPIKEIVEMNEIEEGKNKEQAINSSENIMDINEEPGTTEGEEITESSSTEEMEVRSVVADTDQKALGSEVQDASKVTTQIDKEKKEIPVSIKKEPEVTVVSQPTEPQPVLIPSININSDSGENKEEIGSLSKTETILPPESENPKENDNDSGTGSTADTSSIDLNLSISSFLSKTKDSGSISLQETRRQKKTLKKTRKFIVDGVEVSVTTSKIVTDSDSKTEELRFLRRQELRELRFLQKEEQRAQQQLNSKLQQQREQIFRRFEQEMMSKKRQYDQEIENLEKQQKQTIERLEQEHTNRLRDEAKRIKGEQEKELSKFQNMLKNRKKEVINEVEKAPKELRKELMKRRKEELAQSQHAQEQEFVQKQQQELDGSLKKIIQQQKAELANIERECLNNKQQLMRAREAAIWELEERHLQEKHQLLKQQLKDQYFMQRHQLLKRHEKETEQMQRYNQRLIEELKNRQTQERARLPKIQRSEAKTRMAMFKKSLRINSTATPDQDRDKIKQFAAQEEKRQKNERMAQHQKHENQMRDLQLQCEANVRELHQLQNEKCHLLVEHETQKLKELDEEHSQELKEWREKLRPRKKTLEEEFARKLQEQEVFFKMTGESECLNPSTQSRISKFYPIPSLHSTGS
Procedure: as §4, §5

T1 sequence (O60674 whole entry): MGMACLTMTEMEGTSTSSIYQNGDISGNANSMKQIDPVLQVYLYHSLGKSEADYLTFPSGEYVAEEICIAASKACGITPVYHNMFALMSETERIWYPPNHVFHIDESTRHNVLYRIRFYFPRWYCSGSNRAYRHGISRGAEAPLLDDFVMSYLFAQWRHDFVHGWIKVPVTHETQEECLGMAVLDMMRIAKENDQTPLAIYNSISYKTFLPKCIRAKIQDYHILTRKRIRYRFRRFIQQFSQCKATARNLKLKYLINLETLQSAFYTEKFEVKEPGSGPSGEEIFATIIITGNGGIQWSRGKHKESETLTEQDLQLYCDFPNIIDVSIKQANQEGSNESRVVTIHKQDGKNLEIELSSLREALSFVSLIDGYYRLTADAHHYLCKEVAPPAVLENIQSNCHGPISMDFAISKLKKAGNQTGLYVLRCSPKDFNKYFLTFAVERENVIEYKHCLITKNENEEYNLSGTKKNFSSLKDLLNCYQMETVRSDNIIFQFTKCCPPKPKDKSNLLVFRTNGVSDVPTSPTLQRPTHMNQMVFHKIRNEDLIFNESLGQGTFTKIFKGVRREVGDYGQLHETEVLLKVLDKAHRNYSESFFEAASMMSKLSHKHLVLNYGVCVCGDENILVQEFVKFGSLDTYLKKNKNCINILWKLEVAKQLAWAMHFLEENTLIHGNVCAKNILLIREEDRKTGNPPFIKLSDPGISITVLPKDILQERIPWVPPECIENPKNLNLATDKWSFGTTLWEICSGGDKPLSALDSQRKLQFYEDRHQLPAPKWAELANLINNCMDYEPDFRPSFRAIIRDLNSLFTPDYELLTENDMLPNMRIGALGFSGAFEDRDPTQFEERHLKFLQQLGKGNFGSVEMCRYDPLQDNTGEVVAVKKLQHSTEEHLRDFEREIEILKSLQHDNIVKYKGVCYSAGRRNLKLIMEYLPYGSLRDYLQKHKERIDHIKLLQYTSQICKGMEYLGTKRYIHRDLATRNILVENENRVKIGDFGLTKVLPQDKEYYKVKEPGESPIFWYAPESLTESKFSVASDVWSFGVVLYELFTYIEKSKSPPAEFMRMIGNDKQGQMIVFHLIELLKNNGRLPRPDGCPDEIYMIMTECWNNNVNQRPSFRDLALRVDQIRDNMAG

## CCc1cc(O)c(F)cc1-c1cc(F)c2c(-c3nc4c([nH]3)CCN(C(=O)CN3CCOCC3)C4)n[nH]c2c1 [Compound 1, 1-(2-(6-(2-ethyl-5-fluoro-4-hydroxyphenyl)-4-fluoro-1H-indazol-3-yl)-1,4,6,7-tetrahydro-5H-imidazo[4,5-c]pyridin-5-yl)-2-morpholinoethan-1-one]
[1]
  Ki: 0.0251 nM
[2]
  Ki: 0.2 nM
[3]
  Ki: 2 nM
[4]
  IC50: ~200 nM
[5]
  duration of sustained dermal levels: at least 7 days
[6]
  inhibition at 1 µM: 6%
[7]
  inhibition at 1 µM: 20%
[8]
  inhibition at 1 µM: 100%
